This note sets out measurements from ChEMBL document CHEMBL2016457, “Discovery of potent and orally bioavailable 17β-hydroxysteroid dehydrogenase type 3 inhibitors” (Bioorg Med Chem, 2012).

Assay [1] addresses T1, Glucocorticoid receptor (Homo sapiens) (UniProt P04150).
T1 sequence (whole entry): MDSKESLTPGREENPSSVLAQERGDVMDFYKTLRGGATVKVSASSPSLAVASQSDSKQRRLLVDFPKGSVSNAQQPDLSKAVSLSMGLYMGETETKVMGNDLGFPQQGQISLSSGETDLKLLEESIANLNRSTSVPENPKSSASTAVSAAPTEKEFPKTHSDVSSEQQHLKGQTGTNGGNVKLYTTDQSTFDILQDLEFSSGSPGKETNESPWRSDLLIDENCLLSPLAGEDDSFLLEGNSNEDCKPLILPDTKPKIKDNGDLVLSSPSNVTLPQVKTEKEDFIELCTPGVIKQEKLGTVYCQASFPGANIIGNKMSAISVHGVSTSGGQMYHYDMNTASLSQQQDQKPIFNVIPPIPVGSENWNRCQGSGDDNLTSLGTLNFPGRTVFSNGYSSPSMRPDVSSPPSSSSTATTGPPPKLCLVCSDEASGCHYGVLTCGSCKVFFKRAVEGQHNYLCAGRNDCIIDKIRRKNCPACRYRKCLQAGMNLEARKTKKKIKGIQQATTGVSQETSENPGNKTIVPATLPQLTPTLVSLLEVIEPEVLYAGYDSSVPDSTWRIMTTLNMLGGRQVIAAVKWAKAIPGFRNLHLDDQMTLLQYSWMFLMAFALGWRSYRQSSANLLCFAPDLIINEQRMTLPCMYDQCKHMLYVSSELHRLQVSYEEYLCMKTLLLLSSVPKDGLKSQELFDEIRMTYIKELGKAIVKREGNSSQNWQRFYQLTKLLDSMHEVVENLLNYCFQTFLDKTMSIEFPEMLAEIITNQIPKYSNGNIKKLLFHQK
Put plainly: Agonist activity at human Glucocorticoid receptor expressed in human HeLa cells assessed as DHT-induced response after 40 hrs by luciferase/beta-galactosidase-based reporter gene assay. It counts as functional, cell-based. In general terms: A reporter such as luciferase makes a cellular process visible.

The target of assay [2] is T2, Androgen receptor (Homo sapiens) (UniProt P10275).
T2 sequence (whole entry): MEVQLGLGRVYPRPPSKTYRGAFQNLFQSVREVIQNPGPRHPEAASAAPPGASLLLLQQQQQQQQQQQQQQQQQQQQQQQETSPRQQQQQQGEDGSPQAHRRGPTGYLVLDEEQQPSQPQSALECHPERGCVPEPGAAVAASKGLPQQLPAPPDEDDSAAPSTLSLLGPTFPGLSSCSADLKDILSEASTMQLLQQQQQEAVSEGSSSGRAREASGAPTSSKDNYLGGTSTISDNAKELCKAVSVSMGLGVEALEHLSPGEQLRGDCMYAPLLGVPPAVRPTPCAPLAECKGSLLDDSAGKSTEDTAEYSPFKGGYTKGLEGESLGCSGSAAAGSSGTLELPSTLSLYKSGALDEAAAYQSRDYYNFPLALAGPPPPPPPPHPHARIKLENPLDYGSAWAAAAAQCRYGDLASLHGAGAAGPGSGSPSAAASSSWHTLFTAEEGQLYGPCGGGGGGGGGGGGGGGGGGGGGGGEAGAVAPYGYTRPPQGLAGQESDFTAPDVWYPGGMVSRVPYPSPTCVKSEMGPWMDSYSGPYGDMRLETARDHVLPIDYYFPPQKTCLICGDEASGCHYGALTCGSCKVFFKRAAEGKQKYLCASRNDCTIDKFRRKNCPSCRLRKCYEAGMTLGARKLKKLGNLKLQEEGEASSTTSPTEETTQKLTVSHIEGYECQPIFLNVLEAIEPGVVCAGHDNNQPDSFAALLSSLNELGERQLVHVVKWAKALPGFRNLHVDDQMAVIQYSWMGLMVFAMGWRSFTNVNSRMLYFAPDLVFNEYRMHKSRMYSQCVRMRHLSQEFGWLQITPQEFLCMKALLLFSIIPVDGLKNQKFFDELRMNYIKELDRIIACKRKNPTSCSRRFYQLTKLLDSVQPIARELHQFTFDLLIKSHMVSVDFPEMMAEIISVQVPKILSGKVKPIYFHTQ
Nature of the assay: Agonist activity at human androgen receptor expressed in human HeLa cells assessed as DHT-induced response after 40 hrs by luciferase/beta-galactosidase-based reporter gene assay. The class given is functional, cell-based.

Assay [3] deals with T3, 17-beta-hydroxysteroid dehydrogenase type 2 (Homo sapiens) (UniProt P37059).
T3 sequence (whole entry): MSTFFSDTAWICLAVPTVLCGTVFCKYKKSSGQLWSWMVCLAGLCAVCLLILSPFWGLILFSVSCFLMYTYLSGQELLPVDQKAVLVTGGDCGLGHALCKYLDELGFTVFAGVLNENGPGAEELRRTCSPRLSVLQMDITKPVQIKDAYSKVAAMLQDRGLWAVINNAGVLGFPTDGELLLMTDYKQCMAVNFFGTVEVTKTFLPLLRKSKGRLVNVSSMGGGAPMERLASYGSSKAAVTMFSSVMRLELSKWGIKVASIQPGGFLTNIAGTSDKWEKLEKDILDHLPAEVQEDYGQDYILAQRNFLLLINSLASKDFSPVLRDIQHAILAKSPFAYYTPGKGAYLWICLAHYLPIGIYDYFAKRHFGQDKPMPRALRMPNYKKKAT
Put plainly: Inhibition of human recombinant 17-beta-HSD2 expressed in human HeLa cells using estradiol as substrate preincubated for 30 mins prior substrate addition measured after 120 mins by spectrophotometry. It counts as cell-based.

The target of assay [4] is T4, Estrogen receptor (Homo sapiens) (UniProt P03372).
T4 sequence (whole entry): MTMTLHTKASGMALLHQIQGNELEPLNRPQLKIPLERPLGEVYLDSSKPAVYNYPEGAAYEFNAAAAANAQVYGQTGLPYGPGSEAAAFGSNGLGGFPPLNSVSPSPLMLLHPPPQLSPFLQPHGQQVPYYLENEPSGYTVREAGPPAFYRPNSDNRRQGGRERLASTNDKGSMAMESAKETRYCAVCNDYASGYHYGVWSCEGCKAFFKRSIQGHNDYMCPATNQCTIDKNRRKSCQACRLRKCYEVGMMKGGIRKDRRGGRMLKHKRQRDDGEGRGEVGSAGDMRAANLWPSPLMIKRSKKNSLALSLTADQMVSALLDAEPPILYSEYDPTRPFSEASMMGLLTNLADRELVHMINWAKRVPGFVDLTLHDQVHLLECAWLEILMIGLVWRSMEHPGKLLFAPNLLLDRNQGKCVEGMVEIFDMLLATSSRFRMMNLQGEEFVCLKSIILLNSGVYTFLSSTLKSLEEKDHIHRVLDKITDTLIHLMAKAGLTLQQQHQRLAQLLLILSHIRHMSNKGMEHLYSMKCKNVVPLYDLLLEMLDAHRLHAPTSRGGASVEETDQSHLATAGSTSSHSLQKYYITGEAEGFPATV
Nature of the assay: Antagonist activity at human ERalpha receptor expressed in human HeLa cells assessed as inhibition of DHT-induced response after 40 hrs by luciferase/beta-galactosidase-based reporter gene assay. It counts as functional, cell-based.

Assay [5] addresses T1, Glucocorticoid receptor (Homo sapiens). Put plainly: Antagonist activity at human GR receptor expressed in human HeLa cells assessed as inhibition of DHT-induced response after 40 hrs by luciferase/beta-galactosidase-based reporter gene assay. It counts as functional, cell-based.
The target of assay [6] is T5, 17-beta-hydroxysteroid dehydrogenase type 1 (Homo sapiens) (UniProt P14061).
T5 sequence (whole entry): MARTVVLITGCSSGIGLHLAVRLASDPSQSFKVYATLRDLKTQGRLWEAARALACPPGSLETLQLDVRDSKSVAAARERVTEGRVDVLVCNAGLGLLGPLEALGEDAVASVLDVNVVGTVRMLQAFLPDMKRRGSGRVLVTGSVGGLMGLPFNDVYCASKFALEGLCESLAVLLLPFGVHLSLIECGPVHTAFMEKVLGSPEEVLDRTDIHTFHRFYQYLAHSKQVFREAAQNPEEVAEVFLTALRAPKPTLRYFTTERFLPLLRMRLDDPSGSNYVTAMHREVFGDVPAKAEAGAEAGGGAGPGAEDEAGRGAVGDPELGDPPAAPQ
Nature of the assay: Inhibition of human recombinant 17-beta-HSD1 expressed in human HeLa cells using estrone as substrate preincubated for 30 mins prior substrate addition measured after 120 mins by spectrophotometry. It counts as cell-based.

For assay [7], the target named is T4, Estrogen receptor (Homo sapiens). Nature of the assay: Agonist activity at human Estrogen receptor ERalpha expressed in human HeLa cells assessed as DHT-induced response after 40 hrs by luciferase/beta-galactosidase-based reporter gene assay. The class given is functional, cell-based.
Assay [8] concerns the target T2, Androgen receptor (Homo sapiens). Put plainly: Antagonist activity at human androgen receptor expressed in human HeLa cells assessed as inhibition of DHT-induced response after 40 hrs by luciferase/beta-galactosidase-based reporter gene assay. The class given is functional, cell-based.
Assay [9] concerns the target T6, 17-beta-hydroxysteroid dehydrogenase type 3 (Homo sapiens, UniProt P37058).
T6 sequence (P37058 whole entry): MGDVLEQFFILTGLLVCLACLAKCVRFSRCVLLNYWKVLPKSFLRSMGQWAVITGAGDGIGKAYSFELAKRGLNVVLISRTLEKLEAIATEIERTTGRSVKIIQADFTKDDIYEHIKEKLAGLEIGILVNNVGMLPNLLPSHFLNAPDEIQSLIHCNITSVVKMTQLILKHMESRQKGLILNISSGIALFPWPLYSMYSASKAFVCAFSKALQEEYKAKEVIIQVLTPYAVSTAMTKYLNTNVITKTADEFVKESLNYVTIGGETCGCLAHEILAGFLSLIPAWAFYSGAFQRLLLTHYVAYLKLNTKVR
Description: Inhibition of human recombinant 17-beta-HSD3 expressed in human HeLa cells using androstenedione as substrate preincubated for 30 mins prior substrate addition measured after 120 mins by spectrophotometry

SMILES strings stand for the structures. pIC50: −log10 of the molar value. Active and inactive are the calls of the source. No rule for the calls is given here.

What is called pIC50 is −log10 of the IC50, conventionally taken in molar units. A higher pIC50 goes with a small IC50. As to `C=CCN1C(=O)/C(=C/c2ccc(O)c(Br)c2)SC1=S`, the result in [1], in assay [2], in [4], in [5], in assay [7] and in [8] was inactive. Also, the inhibition result in [3] and in assay [6] was “inactive” throughout. This molecule also showed a pIC50 in [9] of 6.92.

On to `COc1cccc(N2C(=O)/C(=C/c3ccc(O)c(Br)c3)OC2=S)c1`, for which the result in assay [1], in [2], in assay [4], in assay [5], in [7] and in assay [8] was inactive. For the same molecule, the inhibition result in assay [3] and in assay [6] was “inactive” in each case. The pIC50 in assay [9] was 8.15.

On to `COc1ccc(N2C(=O)/C(=C/c3cc(F)c(O)c(Cl)c3)OC2=S)cc1`, for which the outcome in assay [1], in assay [2], in [4], in assay [5], in assay [7] and in [8] was inactive. The inhibition result in [3] and in assay [6] was “inactive” each time. For the same molecule, in [9], the negative logarithm of the IC50 (pIC50) was 9.00.

Turning to `COc1ccc(N2C(=O)/C(=C/c3ccc(O)c(C)c3)OC2=S)cc1`, the outcome in assay [1], in [2], in assay [4], in assay [5], in assay [7] and in assay [8] was inactive. In addition, the inhibition result in assay [3] and in assay [6] was “inactive” throughout. Further, in assay [9], the pIC50 was 7.70.

Regarding `CNC(=O)c1ccc(N2C(=O)O/C(=C\c3ccc(O)c(Br)c3)C2=O)cc1`, the result in assay [1], in [2], in [4], in assay [5], in [7] and in assay [8] was inactive. In addition, the inhibition entry in [3] and in assay [6] was “inactive” in each case. This molecule had a negative-log IC50 (pIC50) in [9] of 7.25.

Take `COc1ccc(N2C(=O)/C(=C/c3ccc(O)cn3)OC2=S)cc1`: the outcome in assay [1], in [2], in [4], in [5], in assay [7] and in [8] was inactive. Besides, the inhibition result in assay [3] and in assay [6] was “inactive” throughout. The pIC50 in [9] was 7.05.

On to `O=C1/C(=C/c2ccc(O)c(Br)c2)OC(=S)N1c1ccc(F)cc1`, for which the result in assay [1], in assay [2], in [4], in assay [5], in assay [7] and in assay [8] was inactive. Also, the inhibition entry in assay [3] and in assay [6] was “inactive” in each case. In assay [9], this molecule showed a negative-log IC50 (pIC50) of 8.70.

Turning to `CS(=O)(=O)c1ccc(N2C(=O)O/C(=C\c3ccc(O)c(Br)c3)C2=O)cc1`, the outcome in assay [1], in assay [2], in assay [4], in assay [5], in assay [7] and in assay [8] was inactive. Further, the inhibition entry in assay [3] and in assay [6] was “inactive” throughout. The same molecule had a pIC50 in [9] of 6.05.
